Test results reported in patent US6835745B2, “Phenyl substituted thiophenes as estrogenic agents” (Wyeth, priority 2002, dated 2004).

Columns and labels:
human ERα = molecular target: T1, human ERα (Homo sapiens, UniProt P03372); assay: Radioligand binding competition with [3H]-17β-estradiol, ERα; conditions: human ERα ligand binding domain extract, read-out: ER-α IC50
T1 construct: amino acids M250-V595 of human ERα; His (N); Flag (C); made in house; host or cells: E. coli BL21(DE3), clarified lysate
T1 sequence (P03372 250-595): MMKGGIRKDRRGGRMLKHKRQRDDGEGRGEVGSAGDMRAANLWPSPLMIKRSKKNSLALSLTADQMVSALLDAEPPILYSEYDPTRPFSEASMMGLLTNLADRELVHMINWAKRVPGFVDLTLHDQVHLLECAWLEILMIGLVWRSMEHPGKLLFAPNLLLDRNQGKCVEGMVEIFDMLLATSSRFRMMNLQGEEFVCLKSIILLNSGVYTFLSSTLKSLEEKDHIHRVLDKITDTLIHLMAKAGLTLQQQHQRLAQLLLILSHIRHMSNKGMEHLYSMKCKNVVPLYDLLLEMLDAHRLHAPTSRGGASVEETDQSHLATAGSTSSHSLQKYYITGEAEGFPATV

human ERβ = molecular target: T2, human ERβ (Homo sapiens, UniProt Q92731); assay: Radioligand binding competition with [3H]-17β-estradiol, ERβ; conditions: human ERβ ligand binding domain extract, read-out: ER-β IC50
T2 construct: M214-Q530 of human ERβ; Flag (C); made in house; host or cells: E. coli BL21(DE3), clarified lysate
T2 sequence (Q92731 214-530): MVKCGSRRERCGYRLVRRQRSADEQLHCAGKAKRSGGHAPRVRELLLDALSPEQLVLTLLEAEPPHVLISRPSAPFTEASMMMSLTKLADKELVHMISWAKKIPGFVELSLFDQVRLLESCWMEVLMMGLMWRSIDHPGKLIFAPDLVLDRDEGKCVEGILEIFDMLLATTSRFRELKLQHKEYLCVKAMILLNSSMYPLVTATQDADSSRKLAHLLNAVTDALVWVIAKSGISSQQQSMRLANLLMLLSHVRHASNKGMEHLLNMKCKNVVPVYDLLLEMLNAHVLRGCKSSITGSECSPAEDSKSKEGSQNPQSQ

[1] = tested on: metallothionein-II mRNA in Saos-2 cells; assay: Regulation of metallothionein II mRNA in Saos-2 cells; format: cell-based
From the text: Estrogens acting through ERβ, but not ERα can upregulate metallothionein II mRNA levels in Saos-2 cells as described by Harris [Endocrinology 142: 645-652 (2001)]. Results from this test procedure can be combined with results from the test procedure described below (ERE reporter test procedure) to generate a selectivity profile for compounds of this invention (see also WO 00/37681).

Row | Compound | IC50 (human ERα) | IC50 (human ERβ) | melting point | Fold upregulation of metallothionein-II mRNA [1]
1 | Cc1c(-c2ccc(O)cc2)sc(C=NO)c1-c1cccc(O)c1 (mixture of isomers) [Example 16, 3-(3-Hydroxyphenyl)-5-(4-hydroxyphenyl)-4-methylthiophene-2-carbaldehyde oxime] | 0.275 µM | 0.091 µM |  | 
2 | Cc1c(-c2ccc(O)cc2)sc(C=NO)c1-c1ccc(O)cc1 (mixture of isomers) [Example 18, 3,5-Bis(4-hydroxyphenyl)-4-methylthiophene-2-carbaldehyde oxime] | 0.086 µM | 0.042 µM |  | 
3 | Cc1c(-c2cccc(O)c2)sc(C=NO)c1-c1ccc(O)cc1 (mixture of isomers) [Example 21, 3-(4-Hydroxyphenyl)-5-(3-hydroxyphenyl)-4-methylthiophene-2-carbaldehyde oxime] | 0.196 µM | 0.123 µM | 240 to 241 °C | 
4 | Cc1c(-c2ccc(O)cc2)sc(C=O)c1-c1cccc(O)c1 [Example 1, 3-(3-Hydroxyphenyl)-5-(4-hydroxyphenyl)-4-methylthiophene-2-carbaldehyde] | 0.212 µM | 0.054 µM | 103 to 104 °C | 
5 | Cc1cc(O)ccc1-c1c(C=O)sc(-c2ccc(O)cc2)c1C [Example 3, 3-(4-Hydroxy-2-methylphenyl)-5-(4-hydroxyphenyl)-4-methyl-2-thiophenecarbaldehyde] | 0.029 µM | 0.0055 µM | 244 to 247 °C | 
6 | Cc1ccc(O)cc1-c1c(C=O)sc(-c2ccc(O)cc2)c1C [Example 4, 3-(5-Hydroxy-2-methylphenyl)-5-(4-hydroxyphenyl)-4-methyl-2-thiophenecarbaldehyde] | 0.464 µM | 0.174 µM |  | 
7 | Cc1c(-c2ccc(O)cc2)sc(C=O)c1-c1ccc(O)c(F)c1 [Example 5, 3-(3-Fluoro-4-hydroxyphenyl)-5-(4-hydroxyphenyl)-4-methyl-2-thiophenecarbaldehyde] | 0.0355 µM | 0.0018 µM |  | 
8 | Cc1c(-c2ccc(O)cc2)sc(C=O)c1-c1ccc(O)c(C=O)c1 [Example 6, 3-(3-Formyl-4-hydroxyphenyl)-5-(4-hydroxyphenyl)-4-methyl-2-thiophenecarbaldehyde] | 0.515 µM | 0.071 µM | 228 to 230 °C | 
9 | Cc1c(-c2ccc(O)cc2)sc(C=O)c1-c1ccc(O)c(Cl)c1 [Example 7, 3-(3-Chloro-4-hydroxyphenyl)-5-(4-hydroxyphenyl)-4-methylthiophene-2-carbaldehyde] | 0.031 µM | 0.0017 µM |  | 
10 | Cc1c(-c2ccc(O)c(F)c2)sc(C=O)c1-c1ccc(O)cc1 [Example 8, 5-(3-Fluoro-4-hydroxyphenyl)-3-(4-hydroxyphenyl)-4-methyl-2-thiophenecarbaldehyde] | 0.093 µM | 0.0053 µM | 227 to 229 °C | 
11 | Cc1cc(O)ccc1-c1c(C=O)sc(-c2ccc(O)c(F)c2)c1C [Example 9, 5-(3-Fluoro-4-hydroxyphenyl)-3-(4-hydroxy-2-methylphenyl)-4-methylthiophene-2-carbaldehyde] | 0.085 µM | 0.012 µM |  | 
12 | Cc1c(-c2ccc(O)c(F)c2)sc(C=O)c1-c1ccc(O)c(Cl)c1 [Example 10, 3-(3-Chloro-4-hydroxyphenyl)-5-(3-fluoro-4-hydroxyphenyl)-4-methylthiophene-2-carbaldehyde] | 0.088 µM | 0.004 µM | 252 to 254 °C | 
13 | Cc1cc(O)ccc1-c1sc(C=O)c(-c2ccc(O)cc2)c1C [Example 11, 5-(4-Hydroxy-2-methylphenyl)-3-(4-hydroxyphenyl)-4-methyl-2-thiophenecarbaldehyde] | 0.068 µM | 0.0078 µM |  | 
14 | Cc1cc(O)ccc1-c1sc(C=O)c(-c2ccc(O)c(F)c2)c1C [Example 12, 3-(3-Fluoro-4-hydroxyphenyl)-5-(4-hydroxy-2-methylphenyl)-4-methylthiophene-2-carbaldehyde] | 0.089 µM | 0.013 µM |  | 
15 | Cc1c(-c2ccc(O)c(Cl)c2)sc(C=O)c1-c1ccc(O)cc1 [Example 13, 5-(3-Chloro-4-hydroxyphenyl)-3-(4-hydroxyphenyl)-4-methylthiophene-2-carbaldehyde] | 0.293 µM | 0.027 µM |  | 
16 | Cc1c(-c2ccc(O)c(Cl)c2)sc(C=O)c1-c1ccc(O)c(F)c1 [Example 14, 5-(3-Chloro-4-hydroxyphenyl)-3-(3-fluoro-4-hydroxyphenyl)-4-methylthiophene-2-carbaldehyde] | 0.157 µM | 0.016 µM | 227 to 229 °C | 
17 | Cc1c(-c2ccc(O)cc2)sc(C=O)c1-c1ccc(O)cc1 [Example 15, 3,5-Bis(4-hydroxyphenyl)-4-methylthiophene-2-carbaldehyde] | 0.031 µM | 0.0021 µM | 223 to 225 °C | 6.0
18 | Cc1c(-c2ccc(O)cc2)sc(C#N)c1-c1cccc(O)c1 [Example 17, 3-(3-Hydroxyphenyl)-5-(4-hydroxyphenyl)-4-methylthiophene-2-carbonitrile] | 0.305 µM | 0.083 µM | 220 to 222 °C | 
19 | Cc1c(-c2ccc(O)cc2)sc(C#N)c1-c1ccc(O)cc1 [Example 19, 3,5-Bis(4-hydroxyphenyl)-4-methylthiophene-2-carbonitrile] | 0.04 µM | 0.0036 µM |  | 
20 | CON=Cc1sc(-c2ccc(O)cc2)c(C)c1-c1ccc(O)cc1 [Example 20, 3,5-Bis(4-hydroxyphenyl)-4-methylthiophene-2-carbaldehyde O-methyloxime] | 0.152 µM | 0.028 µM |  | 
21 | Cc1c(-c2cccc(O)c2)sc(C#N)c1-c1ccc(O)cc1 [Example 22, 3-(4-Hydroxyphenyl)-5-(3-hydroxyphenyl)-4-methylthiophene-2-carbonitrile] | 0.299 µM | 0.073 µM |  | 
22 | CON=Cc1sc(-c2ccc(O)cc2C)c(C)c1-c1ccc(O)c(F)c1 [Example 23, 3-(3-Fluoro-4-hydroxyphenyl)-5-(4-hydroxy-2-methylphenyl)-4-methylthiophene-2-carbaldehyde O-methyloxime] | 0.073 µM | 0.057 µM | 172 to 177 °C | 
